Measured values taken from PubChem BioAssay (NCI).
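GI50 is the concentration that inhibits growth by half. TGI: total growth inhibition.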

Assays:
Test in all cases: NCI-60 cell line screen, 384-well format
UACC-62 melanoma = tested on: UACC-62 melanoma
DU-145 prostate = tested on: DU-145 prostate
MDA-MB-468 breast = tested on: MDA-MB-468 breast
HL-60(TB) leukemia = tested on: HL-60(TB) leukemia
BT-549 breast = tested on: BT-549 breast
NCI-H226 lung = tested on: NCI-H226 lung
SK-OV-3 ovarian = tested on: SK-OV-3 ovarian
UO-31 renal = tested on: UO-31 renal
K-562 leukemia = tested on: K-562 leukemia
SNB-75 CNS = tested on: SNB-75 CNS
OVCAR-4 ovarian = tested on: OVCAR-4 ovarian
SW-620 colon = tested on: SW-620 colon
786-0 renal = tested on: 786-0 renal
UACC-257 melanoma = tested on: UACC-257 melanoma
RXF 393 renal = tested on: RXF 393 renal
NCI-H23 lung = tested on: NCI-H23 lung
T-47D breast = tested on: T-47D breast
HCC-2998 colon = tested on: HCC-2998 colon
NCI-H522 lung = tested on: NCI-H522 lung
COLO 205 colon = tested on: COLO 205 colon
ACHN renal = tested on: ACHN renal
HOP-92 NSCLC = tested on: HOP-92 NSCLC
MDA-MB-435 melanoma = tested on: MDA-MB-435 melanoma
CCRF-CEM leukemia = tested on: CCRF-CEM leukemia
MOLT-4 leukemia = tested on: MOLT-4 leukemia
OVCAR-8 ovarian = tested on: OVCAR-8 ovarian
SK-MEL-5 melanoma = tested on: SK-MEL-5 melanoma
SF-295 CNS = tested on: SF-295 CNS
PC-3 prostate = tested on: PC-3 prostate
HS 578T breast = tested on: HS 578T breast
IGROV1 ovarian = tested on: IGROV1 ovarian
SF-268 CNS = tested on: SF-268 CNS
SK-MEL-28 melanoma = tested on: SK-MEL-28 melanoma
EKVX NSCLC = tested on: EKVX NSCLC
A549 NSCLC = tested on: A549 NSCLC
NCI-H322M lung = tested on: NCI-H322M lung
M14 melanoma = tested on: M14 melanoma
SNB-19 CNS = tested on: SNB-19 CNS
RPMI-8226 leukemia = tested on: RPMI-8226 leukemia
NCI-H460 NSCLC = tested on: NCI-H460 NSCLC
KM12 colon = tested on: KM12 colon
SR leukemia = tested on: SR leukemia
HCT-15 colon = tested on: HCT-15 colon
MCF7 breast = tested on: MCF7 breast
OVCAR-5 ovarian = tested on: OVCAR-5 ovarian
OVCAR-3 ovarian = tested on: OVCAR-3 ovarian
NCI/ADR-RES ovarian = tested on: NCI/ADR-RES ovarian
HT29 colon = tested on: HT29 colon
CAKI-1 renal = tested on: CAKI-1 renal
HOP-62 NSCLC = tested on: HOP-62 NSCLC
MALME-3M melanoma = tested on: MALME-3M melanoma
SF-539 CNS = tested on: SF-539 CNS
MDA-MB-231 breast = tested on: MDA-MB-231 breast
TK-10 renal = tested on: TK-10 renal
SN12C renal = tested on: SN12C renal
LOX IMVI melanoma = tested on: LOX IMVI melanoma
A498 renal = tested on: A498 renal

C=CC(=O)N[C@H]1C=C(C)c2c(-c3cnc4ccccc4c3)c3c(N)ncnc3n2C1
GI50 (UACC-62 melanoma): 6 µM | TGI (UACC-62 melanoma): 18.9 µM | GI50 (DU-145 prostate): 14.1 µM | TGI (DU-145 prostate): 44.9 µM | GI50 (MDA-MB-468 breast): 0.0243 µM | TGI (MDA-MB-468 breast): 0.0646 µM | GI50 (HL-60(TB) leukemia): 26.7 µM | TGI (HL-60(TB) leukemia): 41.6 µM | GI50 (BT-549 breast): 16.8 µM | TGI (BT-549 breast): 35.7 µM | GI50 (NCI-H226 lung): 5.39 µM | TGI (NCI-H226 lung): 26.3 µM | GI50 (SK-OV-3 ovarian): 1.61 µM | TGI (SK-OV-3 ovarian): 15.1 µM | GI50 (UO-31 renal): 12.2 µM | TGI (UO-31 renal): > 100 µM | GI50 (K-562 leukemia): 23.9 µM | TGI (K-562 leukemia): 80.6 µM | GI50 (SNB-75 CNS): 17.6 µM | TGI (SNB-75 CNS): 45.9 µM | GI50 (OVCAR-4 ovarian): 16.2 µM | TGI (OVCAR-4 ovarian): 65.5 µM | GI50 (SW-620 colon): 28.5 µM | TGI (SW-620 colon): 61.6 µM | GI50 ([…]-0 renal): 12.7 µM | TGI (786-0 renal): 28.8 µM | GI50 (UACC-257 melanoma): 18.9 µM | TGI (UACC-257 melanoma): 48 µM | GI50 (RXF 393 renal): 10 µM | TGI (RXF 393 renal): 27.7 µM | GI50 (NCI-H23 lung): 18.2 µM | TGI (NCI-H23 lung): 40.6 µM | GI50 (T-47D breast): 11.5 µM | TGI (T-47D breast): 82 µM | GI50 (HCC-2998 colon): 19.3 µM | TGI (HCC-2998 colon): 35.1 µM | GI50 (NCI-H522 lung): 0.242 µM | TGI (NCI-H522 lung): 9.32 µM | GI50 (COLO 205 colon): 26.2 µM | TGI (COLO 205 colon): 70.4 µM | GI50 (ACHN renal): 0.378 µM | TGI (ACHN renal): 18 µM | GI50 (HOP-92 NSCLC): 10.2 µM | TGI (HOP-92 NSCLC): 33.1 µM | GI50 (MDA-MB-435 melanoma): 31 µM | TGI (MDA-MB-435 melanoma): 87 µM | GI50 (CCRF-CEM leukemia): 14.9 µM | TGI (CCRF-CEM leukemia): 28.2 µM | GI50 (MOLT-4 leukemia): 5.47 µM | TGI (MOLT-4 leukemia): 17.5 µM | GI50 (OVCAR-8 ovarian): 15.8 µM | TGI (OVCAR-8 ovarian): 35 µM | GI50 (SK-MEL-5 melanoma): 13.2 µM | TGI (SK-MEL-5 melanoma): 26 µM | GI50 (SF-295 CNS): 29.5 µM | TGI (SF-295 CNS): > 100 µM | GI50 (PC-3 prostate): 34.1 µM | TGI (PC-3 prostate): 98.8 µM | GI50 (HS 578T breast): 12.8 µM | TGI (HS 578T breast): 26.4 µM | GI50 (IGROV1 ovarian): 0.683 µM | TGI (IGROV1 ovarian): 8.36 µM | GI50 (SF-268 CNS): 15.1 µM | TGI (SF-268 CNS): 45.6 µM | GI50 (SK-MEL-28 melanoma): 14.2 µM | TGI (SK-MEL-28 melanoma): 46.2 µM | GI50 (EKVX NSCLC): 0.312 µM | TGI (EKVX NSCLC): 25.5 µM | GI50 (A549 NSCLC): 11.1 µM | TGI (A549 NSCLC): 30.2 µM | GI50 (NCI-H322M lung): 0.109 µM | TGI (NCI-H322M lung): 16.4 µM | GI50 (M14 melanoma): 13.2 µM | TGI (M14 melanoma): 31.9 µM | GI50 (SNB-19 CNS): 27 µM | TGI (SNB-19 CNS): 73.3 µM | GI50 (RPMI-8226 leukemia): 10 µM | TGI (RPMI-8226 leukemia): 22.1 µM | GI50 (NCI-H460 NSCLC): 14.8 µM | TGI (NCI-H460 NSCLC): 30 µM | GI50 (KM12 colon): 18.8 µM | TGI (KM12 colon): 36.3 µM | GI50 (SR leukemia): 2.45 µM | TGI (SR leukemia): 10.9 µM | GI50 (HCT-15 colon): 25.2 µM | TGI (HCT-15 colon): 82 µM | GI50 (MCF7 breast): 19.7 µM | TGI (MCF7 breast): > 100 µM | GI50 (OVCAR-5 ovarian): 26.2 µM | TGI (OVCAR-5 ovarian): 74.1 µM | GI50 (OVCAR-3 ovarian): 7.32 µM | TGI (OVCAR-3 ovarian): 24.9 µM | GI50 (NCI/ADR-RES ovarian): 34.1 µM | TGI (NCI/ADR-RES ovarian): > 100 µM | GI50 (HT29 colon): 17.5 µM | TGI (HT29 colon): 58.5 µM | GI50 (CAKI-1 renal): 3.49 µM | TGI (CAKI-1 renal): 21.3 µM | GI50 (HOP-62 NSCLC): 17.1 µM | TGI (HOP-62 NSCLC): 76 µM | GI50 (MALME-3M melanoma): 11.7 µM | TGI (MALME-3M melanoma): 24.1 µM | GI50 (SF-539 CNS): 15.1 µM | TGI (SF-539 CNS): 29.3 µM | GI50 (MDA-MB-231 breast): 13.7 µM | TGI (MDA-MB-231 breast): 35.4 µM | GI50 (TK-10 renal): 0.228 µM | TGI (TK-10 renal): 10.6 µM | GI50 (SN12C renal): 15.6 µM | TGI (SN12C renal): 63.9 µM | GI50 (LOX IMVI melanoma): 14.7 µM | TGI (LOX IMVI melanoma): 28.1 µM | GI50 (A498 renal): 2.11 µM | TGI (A498 renal): 20.1 µM
